These results are taken from PubChem BioAssay (NCI).

Each structure is given as a SMILES string.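 96-well plates; 48 h exposure; 5 concentrations. Endpoints by linear interpolation between flanking doses. Not reached: highest tested concentration assigned. TGI marks complete inhibition of growth.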 Where only a bound is given, the exact number is not on record here.

Some test systems named below: SK-MEL-5 melanoma; RPMI-8226 leukemia; SF-539 CNS; MCF7 breast; HS 578T breast; MDA-MB-435; MDA-N; TK-10 renal; K-562 leukemia; NCI/ADR-RES ovarian; COLO 205 colon; KM12 colon; MOLT-4 leukemia; KM20L2 colon; DMS 114 small cell lung; UACC-62 melanoma; DLD-1 colon; M19-MEL melanoma; SNB-75 CNS; NCI-H522 lung.
What all share (experiment): NCI-60 cell line screen, 48 h

For `CC1(C)N=C(/C(Cl)=[N+](/[O-])C(=O)c2ccc(Cl)cc2)C(C)(C)N1O`, the TGI is 43.2 µM with SK-MEL-5 melanoma; 72.6 µM in the test on RPMI-8226 leukemia; 44 µM with SF-539 CNS; 32.7 µM in the test on MCF7 breast; > 100 µM with HS 578T breast; 52.4 µM in the test on MDA-MB-435. Further, the TGI in the test on MDA-N is 32.4 µM; in the test on TK-10 renal, 38.8 µM; in the test with K-562 leukemia, > 100 µM; in the test with NCI/ADR-RES ovarian, 63.8 µM; in the test on COLO 205 colon it was 34.2 µM; in the test with KM12 colon, > 100 µM.
In the case of `Cc1ccc(NC(=O)CC/C(CC(=O)C(C)(C)C)=N/NC(=O)c2cc3ccccc3cc2O)cc1C`, the TGI in the test with MOLT-4 leukemia is > 100 µM; with KM20L2 colon it was > 100 µM; in the test with DMS 114 small cell lung, > 100 µM; in the test with UACC-62 melanoma it was 66 µM; with DLD-1 colon, > 100 µM; in the test with M19-MEL melanoma it was > 100 µM. Also, the TGI in the test with COLO 205 colon and in the test on KM12 colon was > 100 µM each time.
As for `CCC12CCC[C@@]13C=C[C@H](O3)C(C)(C)C2=O` (stereo partly drawn), the TGI with SK-MEL-5 melanoma, in the test on MOLT-4 leukemia, with RPMI-8226 leukemia, with SNB-75 CNS, in the test on SF-539 CNS and in the test on KM20L2 colon was > 100 µM throughout. Further, the TGI with DMS 114 small cell lung, with UACC-62 melanoma, in the test on DLD-1 colon, with M19-MEL melanoma, in the test on NCI-H522 lung and with TK-10 renal was > 100 µM each time. Besides, the TGI in the test with K-562 leukemia was > 100 µM.
